Reference: PubChem BioAssay AID248 (DTP/NCI, 2004)
“And” between values parts separate entries of the source, which are not always exact repeats. Equal entries are not always repeated. Toxic doses and inconclusive results are not listed.

Tested on: L1210 leukemia ip in BDF1 mice, survival T/C
Test: NCI In Vivo Anticancer Drug Screen. Data for tumor model L1210 Leukemia (intraperitoneal) in B6D2F1 (BDF1) mice
Conditions: endpoint: mean survival time, higher = longer survival
Outline: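 Survival endpoint. Drug-treated group vs vehicle group, expressed as T divided by C. Tumor passaged by transplantation.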

[1] = dose: 100.0 mg/kg/injection, schedule: Q04DX002 (ip), vehicle: Klucel (hydroxypropylcellulose) (HPC)
[2] = dose: 200.0 mg/kg/injection, schedule: Q04DX002 (ip), vehicle: Klucel (hydroxypropylcellulose) (HPC)
[3] = dose: 400.0 mg/kg/injection, schedule: Q04DX002 (ip), vehicle: Klucel (hydroxypropylcellulose) (HPC)
[4] = dose: 100.0 mg/kg/injection, schedule: Q04DX003 (ip), vehicle: Klucel (hydroxypropylcellulose) (HPC)
[5] = dose: 200.0 mg/kg/injection, schedule: Q04DX003 (ip), vehicle: Klucel (hydroxypropylcellulose) (HPC)
[6] = dose: 400.0 mg/kg/injection, schedule: Q04DX003 (ip), vehicle: Klucel (hydroxypropylcellulose) (HPC)
[7] = dose: 100.0 mg/kg/injection, schedule: Q04DX003 (ip), vehicle: saline with Tween-80
[8] = dose: 200.0 mg/kg/injection, schedule: Q04DX003 (ip), vehicle: saline with Tween-80
[9] = dose: 400.0 mg/kg/injection, schedule: Q04DX003 (ip), vehicle: saline with Tween-80

In the case of `CC(=O)NC(CCC(=O)C=[N+]=N)C(=O)O` (stereo not given), the T/C (dose: 0.1 mg/kg/injection, schedule: Q01DX009 (ip), vehicle: other) is reported as 98 % of control and 100 % of control and 101 % of control, the T/C (dose: 0.2 mg/kg/injection, schedule: Q01DX009 (ip), vehicle: other) is reported as 105 % of control and 116 % of control (2×) and the T/C (dose: 0.2 mg/kg/injection, schedule: Q01DX015 (ip), vehicle: saline) is reported as 108 % of control. The T/C (dose: 0.4 mg/kg/injection, schedule: Q01DX001 (ip), vehicle: saline) was 106 % of control, the T/C (dose: 0.4 mg/kg/injection, schedule: Q01DX009 (ip), vehicle: other) was 100 % of control and the T/C (dose: 0.4 mg/kg/injection, schedule: Q01DX015 (ip), vehicle: saline) was 120 % of control. For the same compound, the T/C (dose: 0.5 mg/kg/injection, schedule: Q01DX001 (ip), vehicle: other) was 109 % of control, the T/C (dose: 0.5 mg/kg/injection, schedule: Q01DX001 (ip), vehicle: saline) was 113 % of control and the T/C (dose: 0.5 mg/kg/injection, schedule: Q04DX003 (ip), vehicle: other) was 113 % of control. For the same compound, the T/C (dose: 0.5 mg/kg/injection, schedule: Q08DX002 (ip), vehicle: other) was 106 % of control, the T/C (dose: 0.6 mg/kg/injection, schedule: Q01DX001 (ip), vehicle: saline) was 110 % of control and the T/C (dose: 0.6 mg/kg/injection, schedule: Q01DX015 (ip), vehicle: saline) was 123 % of control. The T/C (dose: 0.8 mg/kg/injection, schedule: Q01DX009 (ip), vehicle: other) was 119 % of control, the T/C (dose: 1.0 mg/kg/injection, schedule: Q01DX001 (ip), vehicle: other) was 106 % of control and the T/C (dose: 1.0 mg/kg/injection, schedule: Q01DX009 (ip), vehicle: other) was 122 % of control. For the same compound, the T/C (dose: 1.0 mg/kg/injection, schedule: Q01DX015 (ip), vehicle: saline) was 121 % of control, the T/C (dose: 1.0 mg/kg/injection, schedule: Q04DX003 (ip), vehicle: other) was 120 % of control and the T/C (dose: 1.0 mg/kg/injection, schedule: Q08DX002 (ip), vehicle: other) was 109 % of control. For the same compound, the T/C (dose: 1.5 mg/kg/injection, schedule: Q01DX001 (ip), vehicle: saline) was 114 % of control, the T/C (dose: 2.0 mg/kg/injection, schedule: Q01DX001 (ip), vehicle: other) was 111 % of control and the T/C (dose: 2.0 mg/kg/injection, schedule: Q01DX001 (ip), vehicle: saline) was 122 % of control. For the same compound, the T/C (dose: 2.0 mg/kg/injection, schedule: Q01DX009 (ip), vehicle: other) was 96 % of control, the T/C (dose: 2.0 mg/kg/injection, schedule: Q04DX003 (ip), vehicle: other) was 120 % of control and the T/C (dose: 2.0 mg/kg/injection, schedule: Q08DX002 (ip), vehicle: other) was 111 % of control. The T/C (dose: 4.0 mg/kg/injection, schedule: Q01DX001 (ip), vehicle: saline) was 112 % of control, the T/C (dose: 4.0 mg/kg/injection, schedule: Q04DX003 (ip), vehicle: other) was 117 % of control and the T/C (dose: 5.0 mg/kg/injection, schedule: Q01DX001 (ip), vehicle: other) was 111 % of control. For the same compound, the T/C (dose: 5.0 mg/kg/injection, schedule: Q03HX008 (ip), vehicle: other) was 117 % of control, the T/C (dose: 5.0 mg/kg/injection, schedule: Q03HX024 (ip), vehicle: other) was 150 % of control and the T/C (dose: 5.0 mg/kg/injection, schedule: Q08DX002 (ip), vehicle: other) was 121 % of control. The T/C (dose: 10.0 mg/kg/injection, schedule: Q01DX001 (ip), vehicle: other) was 122 % of control, the T/C (dose: 10.0 mg/kg/injection, schedule: Q03HX008 (ip), vehicle: other) was 118 % of control and the T/C (dose: 10.0 mg/kg/injection, schedule: Q03HX024 (ip), vehicle: other) was 187 % of control. The T/C (dose: 16.0 mg/kg/injection, schedule: Q01DX001 (ip), vehicle: saline) was 117 % of control, the T/C (dose: 20.0 mg/kg/injection, schedule: Q03HX008 (ip), vehicle: other) was 110 % of control and the T/C (dose: 20.0 mg/kg/injection, schedule: Q03HX024 (ip), vehicle: other) was 172 % of control. The T/C (dose: 32.0 mg/kg/injection, schedule: Q01DX001 (ip), vehicle: saline) was 118 % of control, the T/C (dose: 40.0 mg/kg/injection, schedule: Q03HX008 (ip), vehicle: other) was 121 % of control and the T/C (dose: 40.0 mg/kg/injection, schedule: Q03HX016 (ip), vehicle: other) was 150 % of control. For the same compound, the T/C (dose: 40.0 mg/kg/injection, schedule: Q03HX024 (ip), vehicle: other) was 112 % of control.

In the case of `O=c1[nH]c(Cl)ncc1F`, the T/C (dose: 75.0 mg/kg/injection, schedule: Q01DX001 (ip), vehicle: saline) is reported as 95 % of control, the T/C (dose: 150.0 mg/kg/injection, schedule: Q01DX001 (ip), vehicle: saline) is reported as 96 % of control and the T/C (dose: 300.0 mg/kg/injection, schedule: Q01DX001 (ip), vehicle: saline) is reported as 102 % of control.

`Cc1ccc(S(=O)(=O)NNC(=O)c2cc(C)c(C)cc2NCC(O)C(O)C(O)CO)cc1` (stereo not given) was tested, and the T/C (dose: 100.0 mg/kg/injection, schedule: Q01DX001 (ip), vehicle: carboxymethylcellulose (CMC)) was 93 % of control, the T/C (dose: 200.0 mg/kg/injection, schedule: Q01DX001 (ip), vehicle: carboxymethylcellulose (CMC)) was 98 % of control and the T/C (dose: 400.0 mg/kg/injection, schedule: Q01DX001 (ip), vehicle: carboxymethylcellulose (CMC)) was 89 % of control.

`O=C(O)c1nc2nc(Cl)c(Cl)nc2[nH]1` was tested, and the T/C (dose: 50.0 mg/kg/injection, schedule: Q01DX009 (ip), vehicle: saline) was 98 % of control, the T/C (dose: 100.0 mg/kg/injection, schedule: Q01DX009 (ip), vehicle: saline) was 101 % of control and 90 % of control and the T/C (dose: 100.0 mg/kg/injection, schedule: Q04DX003 (ip), vehicle: saline) was 100 % of control. The T/C (dose: 200.0 mg/kg/injection, schedule: Q01DX009 (ip), vehicle: saline) was 93 % of control and 96 % of control, the T/C (dose: 200.0 mg/kg/injection, schedule: Q04DX003 (ip), vehicle: saline) was 103 % of control and the T/C (dose: 300.0 mg/kg/injection, schedule: Q01DX009 (ip), vehicle: saline) was 102 % of control. The T/C (dose: 400.0 mg/kg/injection, schedule: Q01DX009 (ip), vehicle: saline) was 91 % of control.

For `Cc1cc(Cl)cc(C)c1O`, the T/C (dose: 75.0 mg/kg/injection, schedule: Q04DX003 (ip), vehicle: saline) was 114 % of control, the T/C (dose: 150.0 mg/kg/injection, schedule: Q04DX003 (ip), vehicle: saline) was 100 % of control and the T/C (dose: 300.0 mg/kg/injection, schedule: Q04DX003 (ip), vehicle: saline) was 112 % of control.

With `Clc1ccc(/C=N/c2snc3ccccc23)c(Cl)c1` the T/C [1] was 95 % of control, the T/C [2] was 88 % of control and the T/C [3] was 92 % of control.

For `COc1ccc(C(=O)c2ccccc2)cc1OC`, the T/C [4] was 89 % of control, the T/C [5] was 90 % of control and the T/C [6] was 89 % of control.

`CC(C)(C)C(=O)CC(=O)C(C)(C)C.CC(C)(C)C(=O)CC(=O)C(C)(C)C.CC(C)(C)C(=O)CC(=O)C(C)(C)C.[Eu]` was tested, and the T/C [1] was 97 % of control, the T/C [2] was 106 % of control and the T/C [3] was 87 % of control.

`O=C1C(Cl)=C(Nc2ccc(Cl)c(Cl)c2)C(=O)c2ccccc21` was tested, and the T/C [7] was 98 % of control, the T/C [8] was 92 % of control and the T/C [9] was 98 % of control.

In the case of `CC1(c2ccc(Cl)cc2)NC(=O)NC1=O` (stereo not given), the T/C (dose: 50.0 mg/kg/injection, schedule: Q01DX009 (ip), vehicle: Klucel (hydroxypropylcellulose) (HPC)) is reported as 97 % of control, the T/C (dose: 100.0 mg/kg/injection, schedule: Q01DX009 (ip), vehicle: Klucel (hydroxypropylcellulose) (HPC)) is reported as 101 % of control and the T/C (dose: 200.0 mg/kg/injection, schedule: Q01DX009 (ip), vehicle: Klucel (hydroxypropylcellulose) (HPC)) is reported as 94 % of control.

`O=C1CCCCCCCCCCC1Br` (stereo not given) was tested, and the T/C (dose: 100.0 mg/kg/injection, schedule: Q01DX009 (ip), vehicle: saline with Tween-80) was 110 % of control, the T/C [7] was 92 % of control and the T/C (dose: 200.0 mg/kg/injection, schedule: Q01DX009 (ip), vehicle: saline with Tween-80) was 95 % of control. For the same compound, the T/C [8] was 87 % of control, the T/C (dose: 400.0 mg/kg/injection, schedule: Q01DX009 (ip), vehicle: saline with Tween-80) was 87 % of control and the T/C [9] was 92 % of control.

For `O=C(O)CSCc1ccc(Cl)cc1`, the T/C (dose: 100.0 mg/kg/injection, schedule: Q01DX001 (ip), vehicle: acetone) was 95 % of control, the T/C [4] was 94 % of control and the T/C (dose: 200.0 mg/kg/injection, schedule: Q01DX001 (ip), vehicle: acetone) was 97 % of control. For the same compound, the T/C [5] was 98 % of control, the T/C (dose: 400.0 mg/kg/injection, schedule: Q01DX001 (ip), vehicle: acetone) was 97 % of control and the T/C [6] was 98 % of control.

In the case of `CC(=O)OCC(=O)c1cc(OC(C)=O)c(OC(C)=O)c(OC(C)=O)c1`, the T/C (dose: 100.0 mg/kg/injection, schedule: Q01DX001 (ip), vehicle: saline) is reported as 91 % of control and the T/C (dose: 400.0 mg/kg/injection, schedule: Q01DX001 (ip), vehicle: saline) is reported as 94 % of control.
